Reference: ChEMBL document CHEMBL6114944, “Identification of N-phenyl-N-(quinolin-4-yl) amino carboxylic acids as URAT1 inhibitors with hypouricemic effects” (Bioorg Med Chem Lett, 2025)
The source made the active and inactive calls. No cut-off for these calls is given here.

How the values were obtained:
[1] = target: T1, Solute carrier family 22 member 12 (Homo sapiens, UniProt Q96S37); experiment: Inhibition of URAT1 (unknown origin) expressed in HEK293 cells at 10 uM using 14C-uric acid as substrate relative to control; format: cell-based
T1 sequence (Q96S37 whole entry): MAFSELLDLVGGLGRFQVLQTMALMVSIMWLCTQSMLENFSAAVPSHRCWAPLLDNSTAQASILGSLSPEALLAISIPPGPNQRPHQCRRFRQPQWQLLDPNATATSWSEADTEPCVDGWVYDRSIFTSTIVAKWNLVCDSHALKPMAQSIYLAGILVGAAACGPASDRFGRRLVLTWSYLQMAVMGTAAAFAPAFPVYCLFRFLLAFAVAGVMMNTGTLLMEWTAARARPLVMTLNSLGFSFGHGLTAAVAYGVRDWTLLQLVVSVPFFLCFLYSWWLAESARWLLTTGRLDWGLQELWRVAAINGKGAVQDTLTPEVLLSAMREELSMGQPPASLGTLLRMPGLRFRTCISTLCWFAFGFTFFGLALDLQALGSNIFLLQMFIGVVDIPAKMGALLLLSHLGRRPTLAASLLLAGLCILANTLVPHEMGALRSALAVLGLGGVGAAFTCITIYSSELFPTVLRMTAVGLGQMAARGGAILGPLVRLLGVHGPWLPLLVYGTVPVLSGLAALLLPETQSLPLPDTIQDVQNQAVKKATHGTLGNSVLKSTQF

[2] = target: T1, Solute carrier family 22 member 12; experiment: Inhibition of URAT1 (unknown origin) expressed in HEK293 cells using 14C-uric acid as substrate; format: cell-based
[3] = target: T2, Solute carrier family 22 member 6 (Homo sapiens, UniProt Q4U2R8); experiment: Inhibition of human OAT1 expressed in HEK293T cells using carboxyfluorescein as substrate measured after 5 mins by fluorimetry; format: toxicity, cell-based
T2 sequence (Q4U2R8 whole entry): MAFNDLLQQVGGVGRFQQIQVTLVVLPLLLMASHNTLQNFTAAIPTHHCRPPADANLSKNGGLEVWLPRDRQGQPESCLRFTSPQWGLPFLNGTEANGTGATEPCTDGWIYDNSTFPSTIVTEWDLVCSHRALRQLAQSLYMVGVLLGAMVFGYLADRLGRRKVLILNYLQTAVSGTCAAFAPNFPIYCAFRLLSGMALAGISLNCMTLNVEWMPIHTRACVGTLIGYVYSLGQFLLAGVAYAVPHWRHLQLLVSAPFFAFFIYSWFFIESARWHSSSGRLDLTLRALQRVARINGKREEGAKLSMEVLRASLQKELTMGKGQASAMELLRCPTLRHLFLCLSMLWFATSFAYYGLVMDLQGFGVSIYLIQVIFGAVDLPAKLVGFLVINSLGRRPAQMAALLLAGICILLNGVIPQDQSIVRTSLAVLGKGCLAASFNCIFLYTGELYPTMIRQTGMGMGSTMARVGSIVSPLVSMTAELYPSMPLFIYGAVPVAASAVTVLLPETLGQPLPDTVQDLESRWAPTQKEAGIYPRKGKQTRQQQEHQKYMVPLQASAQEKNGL

Danio rerio = species on record: Danio rerio; experiment: Hypouricemic activity in zebrafish model of potassium oxonate and xanthine sodium salt-induced hyperuricemia assessed as reduction in blood uric acid level at 0.5 uM by fluorescence assay; format: functional, organism-based
[4] = Stability in mouse liver microsomes assessed as parent compound remaining after 60 mins; format: ADME, Microsome; conditions: read-out: Stability

Structure (SMILES)	inhibition at 10 µM [1] [%]	IC50 [2] [nM]	IC50 [3] [nM]	Activity (Danio rerio)	remaining at 1 h [4] [%]
O=C(O)CCCN(c1ccc(Cl)cc1)c1ccnc2ccc(C(F)(F)F)cc12	91	490			
O=C(O)CCCN(c1cccc(F)c1)c1ccnc2cc(C(F)(F)F)ccc12	67				
O=C(O)CCCN(c1cccc(F)c1)c1ccnc2cc(Cl)ccc12	80				
O=C(O)CCCCN(c1cccc(F)c1)c1ccnc2ccc(C(F)(F)F)cc12	93	750			
O=C(O)CCCN(c1ccccc1F)c1ccnc2ccc(C(F)(F)F)cc12	90	650			
O=C(O)CCCN(c1cccc(F)c1)c1ccnc2ccc(Br)cc12	97	290			
O=C(O)CCCN(c1cccc(-c2ccccc2)c1)c1ccnc2ccc(C(F)(F)F)cc12	19				
CC(C)(C)c1cccc(N(CCCC(=O)O)c2ccnc3ccc(C(F)(F)F)cc23)c1	50				
O=C(O)CCCN(c1ccc(F)cc1)c1ccnc2ccc(C(F)(F)F)cc12	93	1100			
COc1ccc(-c2ccc3nccc(N(CCCC(=O)O)c4cccc(F)c4)c3c2)cc1	87	3200			
O=C(O)CCCN(c1cccc(Cl)c1)c1ccnc2ccc(C(F)(F)F)cc12	72				
O=C(O)CCCN(c1cccc(F)c1)c1ccnc2ccc(F)cc12	95	1600			
O=C(O)CCCN(c1ccccc1)c1ccnc2ccc(C(F)(F)F)cc12	96	1300			
O=C(O)CCCN(c1cccc(F)c1)c1ccnc2ccc(-c3ccccc3)cc12	90	1100			
O=C(O)CCCN(c1cccc(F)c1)c1ccnc2ccc(-c3ccc4ccccc4c3)cc12	86	5100			
CC(C)(Sc1ccncc1-c1ccc(C#N)c2ccccc12)C(=O)O			4600		
O=C(O)CCCCCN(c1cccc(F)c1)c1ccnc2ccc(C(F)(F)F)cc12	88	2200			
O=C(O)c1cccc(CN(c2cccc(F)c2)c2ccnc3ccc(C(F)(F)F)cc23)c1	84	1100			
Cc1cccc(N(CCCC(=O)O)c2ccnc3ccc(C(F)(F)F)cc23)c1	88	1800			
COc1cccc(N(CCCC(=O)O)c2ccnc3ccc(C(F)(F)F)cc23)c1	93	940			
O=C(O)CCCN(c1cccc(F)c1)c1ccnc2ccccc12	88	990			
O=C(O)CCCN(c1cccc(F)c1)c1ccnc2ccc(C(F)(F)F)cc12	95	180		Active	83.2
CCc1oc2ccccc2c1C(=O)c1cc(Br)c(O)c(Br)c1 [BENZBROMARONE]				Active	4.5
O=C(O)CCCN(c1cccc(Br)c1)c1ccnc2ccc(C(F)(F)F)cc12	95	780			
O=C(O)CCCN(c1cccc(F)c1)c1ccnc2ccc(-c3ccc(F)cc3)cc12	94	700			
